Results reported in PubChem BioAssay AID2060895 (Molecular Pharmacology Branch, DTP, NCI, 2025).

Tested on: PDC 899932-113-R3-J6 complex spheroid viability
Assay: Anticancer human tumor 899932-113-R3-J6-PDC patient-derived melanoma cell line growth inhibition [RAS]
Details: for IC50: curve of first compound; for viability, T/C: stronger effect = lower value
Method in brief: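 Tumour cells grown as complex spheroids with HUVEC endothelial cells and mesenchymal stem cells, treated with RAS pathway inhibitor combinations. Each agent spans half-log steps from near clinical Cmax, or 10 microM where Cmax is unknown.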

[1] = second compound 0.000949 µM, first compound 0.0316 µM
[2] = second compound 0.000949 µM, first compound 0.1 µM
[3] = second compound 0.000949 µM, first compound 0.316 µM
[4] = second compound 0.000949 µM, first compound 1 µM
[5] = second compound 0.000949 µM, first compound 3.16 µM
[6] = second compound 0.000949 µM, first compound 10 µM
[7] = second compound 0.003 µM, first compound 0.0316 µM
[8] = second compound 0.003 µM, first compound 0.1 µM
[9] = second compound 0.003 µM, first compound 0.316 µM
[10] = second compound 0.003 µM, first compound 1 µM
[11] = second compound 0.003 µM, first compound 3.16 µM
[12] = second compound 0.003 µM, first compound 10 µM
[13] = second compound 0.00949 µM, first compound 0.0316 µM
[14] = second compound 0.00949 µM, first compound 0.1 µM
[15] = second compound 0.00949 µM, first compound 0.316 µM
[16] = second compound 0.00949 µM, first compound 1 µM
[17] = second compound 0.00949 µM, first compound 3.16 µM
[18] = second compound 0.00949 µM, first compound 10 µM
[19] = second compound 0.03 µM, first compound 0.0316 µM
[20] = second compound 0.03 µM, first compound 0.1 µM
[21] = second compound 0.03 µM, first compound 0.316 µM
[22] = second compound 0.03 µM, first compound 1 µM
[23] = second compound 0.03 µM, first compound 3.16 µM
[24] = second compound 0.03 µM, first compound 10 µM
[25] = second compound 0.0949 µM, first compound 0.0316 µM
[26] = second compound 0.0949 µM, first compound 0.1 µM
[27] = second compound 0.0949 µM, first compound 0.316 µM
[28] = second compound 0.0949 µM, first compound 1 µM
[29] = second compound 0.0949 µM, first compound 3.16 µM
[30] = second compound 0.0949 µM, first compound 10 µM
[31] = second compound 0.3 µM, first compound 0.0316 µM
[32] = second compound 0.3 µM, first compound 0.1 µM
[33] = second compound 0.3 µM, first compound 0.316 µM
[34] = second compound 0.3 µM, first compound 1 µM
[35] = second compound 0.3 µM, first compound 3.16 µM
[36] = second compound 0.3 µM, first compound 10 µM
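Wherever viability, T/C is given: spheroids exposed to agents for seven days before readout; 100% = DMSO vehicle control wells.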

Compound: CC(C)NCC(C(=O)N1CCN(c2ncnc3c2C(C)CC3O)CC1)c1ccc(Cl)cc1 (stereo unspecified) + CCn1c(-c2cc(N3CCN(C)CC3)cnc2C(C)OC)c2c3cc(ccc31)-c1csc(n1)CC(NC(=O)C1CC1C)C(=O)N1CCCC(N1)C(=O)OCC(C)(C)C2
- IC50 (second compound 0.000949 µM): 1.18 µM
- IC50 (second compound 0.003 µM): < 0.0316 µM
- IC50 (second compound 0.00949 µM): < 0.0316 µM
- IC50 (second compound 0.03 µM): < 0.0316 µM
- IC50 (second compound 0.0949 µM): < 0.0316 µM
- IC50 (second compound 0.3 µM): < 0.0316 µM
- viability, T/C [1]: 80.5%
- viability, T/C [2]: 75.4%
- viability, T/C [3]: 61.7%
- viability, T/C [4]: 53.7%
- viability, T/C [5]: 37.1%
- viability, T/C [6]: 14.6%
- viability, T/C [7]: 34.5%
- viability, T/C [8]: 32.8%
- viability, T/C [9]: 26.5%
- viability, T/C [10]: 19.6%
- viability, T/C [11]: 10%
- viability, T/C [12]: 5.05%
- viability, T/C [13]: 4.77%
- viability, T/C [14]: 3.31%
- viability, T/C [15]: 3.85%
- viability, T/C [16]: 2.39%
- viability, T/C [17]: 1.83%
- viability, T/C [18]: 1.29%
- viability, T/C [19]: 3.08%
- viability, T/C [20]: 2.84%
- viability, T/C [21]: 2.3%
- viability, T/C [22]: 1.95%
- viability, T/C [23]: 0.99%
- viability, T/C [24]: 0.77%
- viability, T/C [25]: 2.64%
- viability, T/C [26]: 2.19%
- viability, T/C [27]: 2.43%
- viability, T/C [28]: 1.31%
- viability, T/C [29]: 1.13%
- viability, T/C [30]: 0.37%
- viability, T/C [31]: 1.88%
- viability, T/C [32]: 2.14%
- viability, T/C [33]: 2.14%
- viability, T/C [34]: 0.97%
- viability, T/C [35]: 0.62%
- viability, T/C [36]: 0.36%

Compound: CC(Nc1ccc2c(c1)OCCn1cc(N3C(=O)OCC3C(F)F)nc1-2)C(N)=O (stereo unspecified) + CCn1c(-c2cc(N3CCN(C)CC3)cnc2C(C)OC)c2c3cc(ccc31)-c1csc(n1)CC(NC(=O)C1CC1C)C(=O)N1CCCC(N1)C(=O)OCC(C)(C)C2
- IC50 (second compound 0.000949 µM): 0.129 µM
- IC50 (second compound 0.003 µM): < 0.0316 µM
- IC50 (second compound 0.00949 µM): < 0.0316 µM
- IC50 (second compound 0.03 µM): < 0.0316 µM
- IC50 (second compound 0.0949 µM): < 0.0316 µM
- IC50 (second compound 0.3 µM): < 0.0316 µM
- viability, T/C [1]: 64.5%
- viability, T/C [2]: 49.2%
- viability, T/C [3]: 39.7%
- viability, T/C [4]: 38.6%
- viability, T/C [5]: 29.7%
- viability, T/C [6]: 19.4%
- viability, T/C [7]: 26.1%
- viability, T/C [8]: 19.6%
- viability, T/C [9]: 15.7%
- viability, T/C [10]: 11.4%
- viability, T/C [11]: 9.07%
- viability, T/C [12]: 7.98%
- viability, T/C [13]: 2.72%
- viability, T/C [14]: 1.99%
- viability, T/C [15]: 1.32%
- viability, T/C [16]: 1.55%
- viability, T/C [17]: 0.87%
- viability, T/C [18]: 0.68%
- viability, T/C [19]: 2.18%
- viability, T/C [20]: 1.47%
- viability, T/C [21]: 0.93%
- viability, T/C [22]: 0.68%
- viability, T/C [23]: 0.45%
- viability, T/C [24]: 0.32%
- viability, T/C [25]: 1.46%
- viability, T/C [26]: 1.18%
- viability, T/C [27]: 0.72%
- viability, T/C [28]: 0.45%
- viability, T/C [29]: 0.31%
- viability, T/C [30]: 0.62%
- viability, T/C [31]: 1.36%
- viability, T/C [32]: 0.73%
- viability, T/C [33]: 0.51%
- viability, T/C [34]: 0.35%
- viability, T/C [35]: 0.22%
- viability, T/C [36]: 0.52%

Compound: O=C(c1ccc(F)c(F)c1Nc1ccc(I)cc1F)N1CC(O)([C@@H]2CCCCN2)C1 + CCn1c(-c2cc(N3CCN(C)CC3)cnc2C(C)OC)c2c3cc(ccc31)-c1csc(n1)CC(NC(=O)C1CC1C)C(=O)N1CCCC(N1)C(=O)OCC(C)(C)C2
- IC50 (second compound 0.000949 µM): < 0.00316 µM
- IC50 (second compound 0.003 µM): < 0.00316 µM
- IC50 (second compound 0.00949 µM): < 0.00316 µM
- IC50 (second compound 0.03 µM): < 0.00316 µM
- IC50 (second compound 0.0949 µM): < 0.00316 µM
- IC50 (second compound 0.3 µM): < 0.00316 µM
- viability, T/C (second compound 0.000949 µM, first compound 0.00316 µM): 39.5%
- viability, T/C (second compound 0.000949 µM, first compound 0.01 µM): 11.1%
- viability, T/C [1]: 2.22%
- viability, T/C [2]: 1.79%
- viability, T/C [3]: 0.22%
- viability, T/C [4]: 0.2%
- viability, T/C (second compound 0.003 µM, first compound 0.00316 µM): 13.7%
- viability, T/C (second compound 0.003 µM, first compound 0.01 µM): 2.9%
- viability, T/C [7]: 2.47%
- viability, T/C [8]: 1.41%
- viability, T/C [9]: 0.18%
- viability, T/C [10]: 0.12%
- viability, T/C (second compound 0.00949 µM, first compound 0.00316 µM): 3.2%
- viability, T/C (second compound 0.00949 µM, first compound 0.01 µM): 2.49%
- viability, T/C [13]: 1.79%
- viability, T/C [14]: 0.56%
- viability, T/C [15]: 0.06%
- viability, T/C [16]: 0.13%
- viability, T/C (second compound 0.03 µM, first compound 0.00316 µM): 2.9%
- viability, T/C (second compound 0.03 µM, first compound 0.01 µM): 2.26%
- viability, T/C [19]: 1.17%
- viability, T/C [20]: 0.14%
- viability, T/C [21]: 0.07%
- viability, T/C [22]: 0.11%
- viability, T/C (second compound 0.0949 µM, first compound 0.00316 µM): 1.79%
- viability, T/C (second compound 0.0949 µM, first compound 0.01 µM): 1.48%
- viability, T/C [25]: 0.57%
- viability, T/C [26]: 0.07%
- viability, T/C [27]: 0.1%
- viability, T/C [28]: 0.13%
- viability, T/C (second compound 0.3 µM, first compound 0.00316 µM): 1.39%
- viability, T/C (second compound 0.3 µM, first compound 0.01 µM): 1.61%
- viability, T/C [31]: 0.46%
- viability, T/C [32]: 0.12%
- viability, T/C [33]: 0.17%
- viability, T/C [34]: 0.17%
